Results on 28 compounds are retold here after patent US20100009970A1, “COMPOSITIONS AND METHODS FOR TREATMENT OF VIRAL DISEASES” (Combinatorx (Singapore) Pte. Ltd., priority 2008, published 2010).

What is called IC90 is the concentration at which the effect reaches the 90% level. As usually defined, the IC50 is the concentration at which inhibition is half-maximal.

Series [1] has as its system Huh7 cells expressing a subgenomic RNA replicon of Con1 (genotype 1b) sequence origin. Put plainly: microbe, parasite or virus in culture. The following applies: Hepatitis C virus.
Another series in a line: in vitro. Conditions: human.
The mark [2] stands for this setting: Huh-7, read-out: IC50 (uM) [SG].
[3] abbreviates: Huh-7, read-out: Max Effect@CC30 (inhibition).

Where two headings read alike, the source gives them in different places. A value given as a limit tells only on which side of the number the result lay.

For `CSc1ccc(Oc2ccc(S(N)(=O)=O)cc2CNC[C@H](C)O)cc1C` [Compound 69, (S)-3-((2-hydroxypropylamino)methyl)-4-(3-methyl-4-(methylthio)phenoxy)benzenesulfonamide], it took 10.4 µM to reach the 90% level in series [1] (Huh-7) (IC90). In addition, the IC50 in series [1] (setting [2]) amounted to 3.54 µM. For the same compound, in “in vitro” (CC50 (uM) [SG]), the CC50 was over 50 µM.

Regarding `CN(C)[C@H]1CC[C@@H](c2ccc(Cl)c(Cl)c2)c2ccc(C(=O)NC3CCC3)cc21` [(5S,8S)—N-cyclobutyl-5-(3,4-dichlorophenyl)-8-(dimethylamino)-5,6,7,8-tetrahydronaphthalene-2-carboxamide], in series [1] (setting [2]), the IC50 amounted to 5.78 µM. Further, the CC50 in “in vitro” (CC50 (uM) [SG]) amounted to 13.4 µM.

As for `COc1ccc(Oc2ccc(Br)cc2CN(C)C)cc1` [Compound 42, (5-bromo-2-(4-methoxyphenoxy)phenyl)-N,N-dimethylmethanamine], in series [1] (setting [2]), the IC50 stood at 30.8 µM. In series [1] (setting [3]), the Emax came out at 51.7%. Further, in the series “in vitro” (CC50 (uM) [SG]), the CC50 is over 50 µM.

Consider `CNCc1ccccc1Oc1ccc(SC)c(C)c1` [Compound 30, N-methyl-1-(2-(3-methyl-4-(methylthio)phenoxy)phenyl)methanamine], for which the 50% inhibitory concentration (IC50) in series [1] (setting [2]) turned out to be 13.2 µM. The Emax in series [1] (setting [3]) is 26%. The CC50 in the series “in vitro” (CC50 (uM) [SG]) worked out at 26.4 µM.

On to `CSc1ccc(Oc2ccc(S(N)(=O)=O)cc2CN2CCCC2)cc1C` [Compound 101, 4-(3-methyl-4-(methylthio)phenoxy)-3-(pyrrolidin-1-ylmethyl)benzenesulfonamide], for which the IC90 in series [1] (Huh-7) worked out at 4.74 µM. The IC50 in series [1] (setting [2]) amounted to 1.74 µM. Besides, the CC50 in “in vitro” (CC50 (uM) [SG]) stood at 40.6 µM.

`CSc1ccc(Oc2ccc(S(=O)(=O)Nc3ccc(Br)cc3)cc2CN(C)C)cc1C` [Compound 57, N-(4-bromophenyl)-3-((dimethylamino)methyl)-4-(3-methyl-4-(methylthio)phenoxy)benzenesulfonamide]: the concentration for half-maximal inhibition (IC50) in series [1] (setting [2]) stood at 11 µM. Also, the CC50 in the series “in vitro” (CC50 (uM) [SG]) amounted to 8.17 µM.

As to `CN[C@H]1CC[C@@H](c2ccc(Cl)c(Cl)c2)c2ccc(N(C)C)cc21` [Sertraline A-Ring N,N-Dimethylamine, (1S,4S)-4-(3,4-dichlorophenyl)-N1,N7,N7-trimethyl-1,2,3,4-tetrahydronaphthalene-1,7-diamine], the IC50 in series [1] (Huh-7) and in series [1] (setting [2]) was 3.52 µM in each case. In series [1] (Huh-7), the IC90 was determined as 5.82 µM. Also, the Emax in series [1] (setting [3]) turned out to be 35.1%. Further, the CC50 in “in vitro” (CC50 (uM)) and in the series “in vitro” (CC50 (uM) [SG]) was 6.22 µM throughout.

In series [1] (Huh-7), `CSc1ccc(Oc2ccc(S(N)(=O)=O)cc2CN2CC[C@H](O)C2)cc1C` [Compound 66, (S)-3-((3-hydroxypyrrolidin-1-yl)methyl)-4-(3-methyl-4-(methylthio)phenoxy)benzenesulfonamide] displayed a 90% effect concentration (IC90) of 6.78 µM. Also, in series [1] (setting [2]), the IC50 is 2.43 µM. The compound further displayed a CC50 in the series “in vitro” (CC50 (uM) [SG]) of over 50 µM.

Consider `CNCc1cc([N+](=O)[O-])ccc1Oc1ccc(SC)c(C)c1` [Compound 50, N-methyl-1-(2-(3-methyl-4-(methylthio)phenoxy)-5-nitrophenyl)methanamine], for which the IC90 in series [1] (Huh-7) was determined as 11.4 µM. Besides, the IC50 in series [1] (setting [2]) is 6.04 µM. Further, in series [1] (setting [3]), the Emax came out at 90%. In the series “in vitro” (CC50 (uM) [SG]), the CC50 is 26.1 µM.

Turning to `CSc1ccc(Oc2ccc(S(N)(=O)=O)cc2CN2CCN(c3ccccc3)CC2)cc1C` [Compound 93, 4-(3-methyl-4-(methylthio)phenoxy)-3-((4-phenylpiperazin-1-yl)methyl)benzenesulfonamide], the IC50 in series [1] (setting [2]) came to 20.2 µM. Moreover, in the series “in vitro” (CC50 (uM) [SG]), the CC50 came to 43.1 µM.

With `CNCc1cc(S(N)(=O)=O)ccc1Oc1ccc(SC)c(OC)c1` [Compound 75, 4-(3-methoxy-4-(methylthio)phenoxy)-3-((methylamino)methyl)benzenesulfonamide], the IC50 in series [1] (setting [2]) turned out to be 11.9 µM. The compound also showed a CC50 in the series “in vitro” (CC50 (uM) [SG]) of over 50 µM.

The compound `CN(CCO)[C@H]1CC[C@@H](c2ccc(Cl)c(Cl)c2)c2ccccc21` [N-Ethanol Sertraline, 2-(((1S,4S)-4-(3,4-dichlorophenyl)-1,2,3,4-tetrahydronaphthalen-1-yl)(methyl)amino)ethanol] gave a concentration for an effect of 90% (IC90) in series [1] (Huh-7) of 21.9 µM. In addition, the IC50 in series [1] (setting [2]) is 7.8 µM. The Emax in series [1] (setting [3]) was 93%. In addition, the CC50 in “in vitro” (CC50 (uM) [SG]) was determined as 49.8 µM.

On to `CN[C@H]1CC[C@@H](c2ccc(Cl)c(Cl)c2)c2ccc(C(=O)Nc3ccccc3)cc21` [Sertraline A-Ring Benzamide, (5S,8S)-5-(3,4-dichlorophenyl)-8-(methylamino)-N-phenyl-5,6,7,8-tetrahydronaphthalene-2-carboxamide], for which the IC50 in series [1] (setting [2]) amounted to 2.73 µM. In addition, the Emax in series [1] (setting [3]) turned out to be 48.6%. This compound returned a CC50 in the series “in vitro” (CC50 (uM) [SG]) of 3.89 µM.

Consider `Cc1cccc(Oc2ccc(S(N)(=O)=O)cc2CC(C)C)c1` [Compound 65, 3-isobutyl-4-(m-tolyloxy)benzenesulfonamide], for which the 90% effect level in series [1] (Huh-7) (IC90) was put at 50 µM. The IC50 in series [1] (setting [2]) amounted to 30.7 µM. The compound further returned a CC50 in the series “in vitro” (CC50 (uM) [SG]) of over 50 µM.

For `CCCCC(=O)Nc1ccc2c(c1)[C@@H](NC)CC[C@H]2c1ccc(Cl)c(Cl)c1` [Sertraline A-Ring Reverse Pentanamide, N-((5S,8S)-5-(3,4-dichlorophenyl)-8-(methylamino)-5,6,7,8-tetrahydronaphthalen-2-yl)pentanamide], the IC50 was 3.68 µM in series [1] (Huh-7) and 3.67 µM in series [1] (setting [2]). The compound also returned an IC90 in series [1] (Huh-7) of 5.03 µM. Moreover, the Emax turned out to be 33.1% in series [1] (Huh-7, read-out: Max Effect @CC30 (inhibition)) and 33.1% in series [1] (setting [3]). For the same compound, the CC50 in the series “in vitro” (CC50 (uM)) and in “in vitro” (CC50 (uM) [SG]) was 4.32 µM each time.

Consider `CN[C@H]1CC[C@@H](c2ccc(Cl)c(Cl)c2)c2ccc(C(=O)NC3CC3)cc21` [(5S,8S)—N-cyclopropyl-5-(3,4-dichlorophenyl)-8-(methylamino)-5,6,7,8-tetrahydronaphthalene-2-carboxamide], for which, in series [1] (setting [2]), the IC50 amounted to 2.75 µM. In series [1] (setting [3]), the Emax came to 88%. This compound gave a CC50 in “in vitro” (CC50 (uM) [SG]) of 8.87 µM.

Turning to `CN(C)Cc1ccccc1Oc1ccc(Br)cc1` [Compound 55, (2-(4-bromophenoxy)phenyl)-N,N-dimethylmethanamine], the IC50 in series [1] (setting [2]) was 29.9 µM. In series [1] (setting [3]), the Emax was found to be 77.2%. This compound also registered a CC50 in “in vitro” (CC50 (uM) [SG]) of over 50 µM.

For the compound `CNC1CCC(c2ccc(Cl)c(Cl)c2)c2ccsc21` (stereo not drawn) [Sertraline A-ring Thiophene], the IC50 stood at 8.27 ± 0.46 µM in series [1] (setting [2]) and 8.27 ± 0.46 µM in series [1] (Huh-7, read-out: SA IC50 (uM)). In addition, the Emax in series [1] (setting [3]) was 80.8 ± 2.55%; in series [1] (Huh-7, read-out: Max effect @CC30 (%)) it was 80.8 ± 2.55%. The compound further displayed a CC50 in “in vitro” (CC50 (uM) [SG]) of 18.8 ± 0.93 µM.

In series [1] (Huh-7), `CSc1ccc(Oc2ccc(S(N)(=O)=O)cc2CN2CC[C@@H](N(C)C)C2)cc1C` [Compound 100, (R)-3-((3-(dimethylamino)pyrrolidin-1-yl)methyl)-4-(3-methyl-4-(methylthio)phenoxy)benzenesulfonamide] showed an IC90 of 10.6 µM. The IC50 in series [1] (setting [2]) is 5.03 µM. The compound further gave a CC50 in the series “in vitro” (CC50 (uM) [SG]) of 35.6 µM.

With `CN[C@H]1CC[C@@H](c2ccc(Cl)c(Cl)c2)c2ccc(C(N)=S)cc21` [Sertraline A-Ring Thiocarboxamide, (5S,8S)-5-(3,4-dichlorophenyl)-8-(methylamino)-5,6,7,8-tetrahydronaphthalene-2-carbothioamide], the IC50 in series [1] (setting [2]) amounted to 7.19 µM. Moreover, the CC50 in the series “in vitro” (CC50 (uM) [SG]) was determined as 13.2 µM.

With `CSc1ccc(N2CN(C)Cc3cc(Br)ccc32)cc1C` [Compound 78, 6-bromo-3-methyl-1-(3-methyl-4-(methylthio)phenyl)-1,2,3,4-tetrahydroquinazoline], the IC90 in series [1] (Huh-7) amounted to 15.5 µM. Also, the half-inhibitory concentration (IC50) in series [1] (setting [2]) stood at 13.7 µM. The same compound yielded a CC50 in “in vitro” (CC50 (uM) [SG]) of 24.9 µM.

For the compound `CN[C@H]1CC[C@@H](c2ccc(Cl)c(Cl)c2)c2ccc(N)cc21` [Sertraline Aniline, (1S,4S)-4-(3,4-dichlorophenyl)-N1-methyl-1,2,3,4-tetrahydronaphthalene-1,7-diamine], the Emax in series [1] (GETYPE1B, Huh-7, 72 h, read-out: Max Effect @CC30 (inhibition)) came to 50%; in series [1] (setting [3]), 50%. The IC50 in series [1] (Huh-7, 72 h) stood at 6 µM; in series [1] (setting [2]) it was 6 µM. Besides, the CC50 in “in vitro” (CC50 (uM)) and in “in vitro” (CC50 (uM) [SG]) was 8.72 µM throughout.

In series [1] (Huh-7), `CSc1ccc(N2CN(C)Cc3cc(S(N)(=O)=O)ccc32)cc1C` [Compound 107, 3-methyl-1-(3-methyl-4-(methylthio)phenyl)-1,2,3,4-tetrahydroquinazoline-6-sulfonamide] registered an IC90 of 12.8 µM. Further, the IC50 in series [1] (setting [2]) is 4.84 µM. The CC50 in the series “in vitro” (CC50 (uM) [SG]) was over 50 µM.

For `CNCc1cc(Br)ccc1Oc1ccc(SC)cc1` [Compound 34, (5-bromo-2-(4-(methylthio)phenoxy)phenyl)-N-methylmethanamine], in series [1] (setting [2]), the 50% inhibitory concentration (IC50) worked out at 24.6 µM. Also, the Emax in series [1] (setting [3]) was 72.6%. The CC50 in the series “in vitro” (CC50 (uM) [SG]) was determined as 35.5 µM.

The compound `CSc1ccc(Oc2ccc(S(N)(=O)=O)cc2CN(C)CCCN(C)C)cc1C` [Compound 94, 3-(((3-(dimethylamino)propyl)(methyl)amino)methyl)-4-(3-methyl-4-(methylthio)phenoxy)benzenesulfonamide] had an IC90 in series [1] (Huh-7) of 7.38 µM. In series [1] (setting [2]), the IC50 was 3.26 µM. The same compound gave a CC50 in “in vitro” (CC50 (uM) [SG]) of 15 µM.

Take `CSc1ccc(Oc2ccc(S(N)(=O)=O)cc2CN2CCOCC2)cc1C` [Compound 82, 4-(3-methyl-4-(methylthio)phenoxy)-3-(morpholinomethyl)benzenesulfonamide]: in series [1] (setting [2]), the IC50 came out at 20.8 µM. In “in vitro” (CC50 (uM) [SG]), this compound yielded a CC50 of over 50 µM.

The compound `CSc1ccc(Oc2ccc(S(N)(=O)=O)cc2CN2CCNCC2)cc1C` [Compound 111, 4-(3-methyl-4-(methylthio)phenoxy)-3-(piperazin-1-ylmethyl)benzenesulfonamide] displayed an IC90 in series [1] (Huh-7) of 22.6 µM. Besides, the IC50 in series [1] (setting [2]) amounted to 7.12 µM. The compound also showed a CC50 in “in vitro” (CC50 (uM) [SG]) of 46.3 µM.

On to `CSc1ccc(Oc2ccc(N)cc2CN(C)C)cc1C` [Compound 53, 3-((dimethylamino)methyl)-4-(3-methyl-4-(methylthio)phenoxy)aniline], for which the 90% effect level in series [1] (Huh-7) (IC90) was put at 45.7 µM. Moreover, in series [1] (setting [2]), the IC50 was 22.6 µM. In addition, the Emax in series [1] (setting [3]) was determined as 91.5%. In the series “in vitro” (CC50 (uM) [SG]), the CC50 was over 50 µM.
